Results as given in US11872263B2, “AIMP1 protein fragment and hair growth-promoting composition containing same as active ingredient” (CUREBIO THERAPEUTICS, priority 2016, dated 2024).

Legend:
[1] = test system: C3H/HeJ mice having alopecia universalis; experiment: Hair growth in C3H/HeJ mice with skin graft-induced alopecia areata; type: in vivo, mouse; settings: 100 μl of 100 nM topical once daily for 14 weeks
Description: In order to confirm the effect of the polypeptide of the present invention on the human hair growth cycle, C3H/HeJ mouse (Jackson Laboratory, USA) was used as an animal model reflecting the pathological state of human alopecia areata. The advantage of using the C3H/HeJ mouse is that when full thickness skin graft is applied to an aged mouse having alopecia areata from young age, patchy alopecia develops within 8 to 10 weeks, and after 20 weeks, alopecia extends to the whole body skin and result in a chronic state of alopecia universalis.
In this test, C3H/HeJ female mice having alopecia universalis that was induced 25 weeks after skin transplantation as described above were used. Without any pretreatment such as shaving or depilation, control group (Control-treated mice, 100 μl of 20% glycerol/PBS) and Neo-Pep polypeptide treated group (Peptide-treated mice, 100 μl of 100 nM Neo-Pep polypeptide (SEQ ID NO: 1) in 20% glycerol/PBS) were treated with each test material topically around the alopecia region using brush, once daily, for 14 weeks. Control group and Neo-Pep treated group consisted of 4 mice, respectively.
Photographs were taken every 2 weeks from the beginning of the experiment.

[2] = test system: hair follicles of anagen phase in dorsal skin; experiment: H&E staining of dorsal skin sections: anagen hair follicle count and dermis thickness; type: in vivo, mouse; settings: H&E stained dorsal skin sections, Day 13 after depilation, 100 nM
Method: Skin samples of 7 weeks old male C57BL6 mice (purchased from Orient Bio Inc.) were collected and placed in a cryomold using an OCT compound (Tissue-Tek) and stored at −80° C. in a freezer. After tissue sections were prepared with Microm HM 525 (Thermo Scientific), the tissue sections prepared in the slide glass were fixed with 4% paraformaldehyde for 10 minutes, washed twice with PBS for 5 minutes, and then stained with 50 μl of hematoxylin solution (Sigma Aldrich) for 6 minutes and washed with water and PBS for 5 minutes. Then, stained with eosin (Sigma Aldrich), briefly washed with water and washed with PBS for 5 min, then briefly twice with 95% ethanol and 100% ethanol, respectively. After treatment with xylene (Duksan) twice for 2 min, the stained tissue sections were covered with cover slides and fixed.
In addition, dorsal skin samples of the mice were collected and placed in a cryomold using an OCT compound (Tissue-Tek) and stored at −80° C. in a freezer. […] The number of hair follicles of anagen phase (growth phase) was counted and compared quantitatively in dorsal skin sections of each group stained with hematoxylin and eosin (H & E).

[3] = test system: β-catenin target genes AXIN, CD44 and TCF7; experiment: qRT-PCR of β-catenin target genes in CD34+ cells; type: cell-based, mouse; settings: 100 nM, CD34+ cells cultured 8 hours
Method: In order to confirm the induction of CD34+ hair follicle stem cell proliferation through β-catenin pathway, mRNA expression levels of β-catenin target genes AXIN, CD44 and TCF7 were confirmed by the following method. Specifically, each test substance was treated and CD34+ cells were cultured for 8 hours. Then, the cultured cells were collected, RNA was isolated using GeneJET RNA purification kit (Thermo Fisher, K0731), and cDNA was synthesized with the Maxima first strand cDNA synthesis kit (Thermo Fisher, K1642). qRT-PCR was performed using each of the gene-specific primers (TCF7: 5′-[…]-3′ (SEQ ID NO: 36) and 5′-[…]-3′ (SEQ ID NO: 37), AXIN2: 5′-CTCCTTGGAGGCAAGAGC-3′ (SEQ ID NO: 38) and 5′-GGCCACGCAGCACCGCTG-3′ (SEQ ID NO: 39), CD44: 5′-[…]-3′ (SEQ ID NO: 40) and 5′-GGAGTCTTCGCTTGGGGTA-3′ (SEQ ID NO: 41)), Maxima SYBR green/ROX qPCR master mix (Thermo Fisher, K0222) and 7500 Real-time PCR system (Applied Biosystems, 2720; condition: 40 cycles, 2 step (95° C. for 15 sec, and 54° C. for 60 sec). The expression level of each gene was calculated by the ΔΔCT method.

[4] = test system: hair follicle region of skin tissue; experiment: Histological analysis (IHC for BrdU, β-catenin, Cytokeratin 15) of skin at Day 6 after depilation; type: in vivo, mouse; settings: 100 nM
Method: A skin sample of 7 weeks old male C57BL6 mice (purchased from Orient Bio Inc.) was collected and placed in a paraffin block. IHC (Immunohistochemistry) was performed using Cytokeratin 15 antibody (Abcam), BrdU antibody (Novusbio), and β-catenin antibody.
For reference, β-catenin is a hair follicle signaling marker, Cytokeratin 15 is a hair follicle stem cell marker, and BrdU is a cell proliferation marker.
β-catenin is a very important protein for hair growth and a very important factor in follicular stem cell proliferation playing a role as a signaling marker for hair follicle cells. In addition, Cytokeratin 15 acts as a biomarker of hair follicle stem cells, and BrdU is known to be a factor that plays a role as a cell growth marker.

[5] = test system: dorsal hair of depilated C57BL6 mice; experiment: In vivo hair regrowth after depilation of dorsal skin of mice; design: species or system mouse; settings: 13 days after depilation, 100 nM polypeptide, 80 μl topical once a day
Method: (§1) The hair of the dorsal skin of mice (7 weeks old male C57BL6, purchased from Orient Bio Inc.) was cut out with a clipper, and hair removal cream (Niclean, Ildong Pharmaceutical) was applied. The depilated area was about 2×2.5 cm. Mice were treated with 20% glycerol/PBS (control group), 3% Minoxidil (MNX, 140 mM), FGF7 (100 nM) or Neo-Pep of the present invention (polypeptide of SEQ ID NO: 1, 100 nM), respectively, once a day in 80 μl using brush, for 13 days (n=6 per group).
as §1, with “Specifically, the hair” for “The hair”, “of a mouse” for “of mice”, “group). For comparative observation, the dorsal skin of the mouse was photographed before and after the beginning of the test.” for “group).”

[6] = test system: hair follicles in skin tissue of C3H/HeJ mice; experiment: H&E histology of skin tissue of C3H/HeJ alopecia areata mice; type: in vivo, mouse; settings: 100 nM topical
Description: Meanwhile, in the images of the skin tissue of the mouse in FIG. 7, the skin tissue at the alopecia area and the area without alopecia around it was collected, fixed in Fekete's acid alcohol formalin and analyzed for H&E staining.
These are main characteristics used for diagnosing alopecia areata. And follicular dystrophy is a phenomenon that occurs frequently in alopecia areata, which means that hair follicles are twisted and deformed or have weak or disrupted hair shaft.

[7] = test system: CD34+ hair follicle stem cells; experiment: In vitro hair growth assay / BrdU proliferation assay with CD34+ hair follicle stem cells; type: cell-based, mouse
Method: The hair of the dorsal skin of 7 weeks old male C57BL6 mice (purchased from Orient Bio Inc.) were cut with a clipper and skin tissue samples of the depilated dorsal region of the mice were collected. The collected skin tissue samples were immersed in medium using collagenase, DNase I, and hyaluronidase, and cells were isolated using Gentle MACSTM Dissociator (Miltenyi Biotec). After the cells were separated, the separated cells were incubated with a mouse CD34-Biotin antibody (Miltenyi Biotec). Cells and antibody solutions were incubated with streptavidin microbeads (Miltenyi Biotec) and then separated using LS column (Miltenyi Biotec). The separated cells were cultured in DMEM medium containing 10% FBS, 1% penicillin/streptomycin solution in humidified air of 95% 02 and 5% CO2 at 37° C.
Cell proliferation can be confirmed using the BrdU cell proliferation assay kit (Cell Signaling). Proliferation assays were performed using protocols presented by […]. Briefly, the cells were incubated with BrdU for 2 h. The primary BrdU detection antibody was incubated for 1 hour and the secondary anti-mouse IgG, HRP-conjugate antibody was incubated for 30 minutes.
A hair growth in vitro assay was performed using the Cyquant Assay (Thermo Fisher). […]

Sequence: AVLKRLEQKGAEADQIIEYLKQQVSLLKEKAILQATLREEK (Homo sapiens Neo-Pep polypeptide; AIMP1-(6-46))
- time at which hair began to grow again [1]: 11 weeks
- mice with mild to moderate hair growth ([1]; 4 mice per group): 3 out of 4
- dermis thickness compared with control [2]: much thicker
- number of hair follicles of anagen phase compared with control [2]: more than twice as much
- mRNA expression level of AXIN, CD44 and TCF7 compared to the control group [3]: 5 fold
- start of anagen phase compared with control (BrdU, β-catenin, Cytokeratin 15) [4]: starts earlier
- dorsal hair growth compared with control group [5]: grew much more
- development of inflammation and deformed hair shaft compared to the control group [6]: significantly lower
- proliferation of CD34+ hair follicle stem cells ([7]; 1 nM, 10 nM, 100 nM and 1000 nM): induced proliferation of CD34+ hair follicle stem cells in a dose-dependent manner
- inducing proliferation of CD34+ hair follicle stem cells (relative cell number) ([7]; each peptide 100 nM, 24 hours): induced proliferation
